The results in this text go back to patent publication US6950757B2, “Screening methods for identifying ligands” (Emerald BioStructures, Inc., priority 2001, dated 2005).

Common to all, as to type: binding
Experiment [1] has as its target T1, topo70-DNA covalent complex (Form 7 apo-crystals) (Homo sapiens, UniProt P11387).
T1 construct: human topoisomerase I construct of residues Lys175 to Phe765; made in house; host or cells: baculovirus-insect cell (SF9)
T1 sequence (P11387 175-765): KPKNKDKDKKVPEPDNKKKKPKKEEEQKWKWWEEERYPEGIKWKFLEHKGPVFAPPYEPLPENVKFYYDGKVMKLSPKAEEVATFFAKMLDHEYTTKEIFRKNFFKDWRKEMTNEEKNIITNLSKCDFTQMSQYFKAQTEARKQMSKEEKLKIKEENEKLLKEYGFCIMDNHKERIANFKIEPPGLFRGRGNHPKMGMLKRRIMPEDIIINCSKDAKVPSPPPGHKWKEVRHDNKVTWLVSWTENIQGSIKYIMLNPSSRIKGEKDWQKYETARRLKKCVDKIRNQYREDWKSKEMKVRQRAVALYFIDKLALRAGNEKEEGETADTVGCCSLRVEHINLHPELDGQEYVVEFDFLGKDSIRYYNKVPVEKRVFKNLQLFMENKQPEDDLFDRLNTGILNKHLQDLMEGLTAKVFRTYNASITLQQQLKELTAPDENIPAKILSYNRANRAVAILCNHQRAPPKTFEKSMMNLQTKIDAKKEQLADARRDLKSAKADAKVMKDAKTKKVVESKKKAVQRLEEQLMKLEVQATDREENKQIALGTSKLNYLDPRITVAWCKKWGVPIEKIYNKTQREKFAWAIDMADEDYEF
Briefly: Crystal cracking of Form 7 crystals (crystal-cracking assay). The settings on record: 16° C., approximately 3 hours.
Text: Cracking of the crystal after exposure to the potential ligand(s) indicates binding between at least one potential ligand and the macromolecule. This assay is referred to herein as the “crystal-cracking” assay.
The crystal cracking assay of the invention involves the development of optimized crystal growth conditions that depend on the absence of the ligand to produce a supply of macromolecule crystals, referred to herein as apo-crystals, then soaking the apo-crystals in a solution containing one or more potential ligands. If a ligand actually binds to the macromolecule, it initiates a conformational change in the crystal resulting in an observable cracking of the crystal.
Several rounds of similar optimization screening experiments eventually led to the identification of a definitive crystallization condition that produces crystals of the topo70-DNA covalent complex only in the absence of Topotecan (designate Form 7). The Form 7 crystals were grown at 16° C. under optimized conditions by vapor diffusion equilibration against a 500 microliter reservoir solution of 10% PEG 8000, 100 mM Tris-HCl pH 8.0, 100 mM Na/K phosphate pH 6.2, 100 mM KCl, and 10 mM DTT. The sitting drop crystallizations were prepared in drop chambers by mixing 2 microliters of reservoir solution with 2 microliters of 0.1 mM duplex DNA substrate in 6 mM NaCl, and 2 microliters 4 mg/ml topo70 in 10 mM Tris-HCl pH 7.5, 1 mM EDTA, and 1 mM DTT.
In order to test the effects of Topotecan and other topo I poisons on the integrity of Form 7 crystals, crystallization drops containing Form 7 crystals were subjected to the following treatments:
1. Injection of 3 microliters of a buffer solution containing 100 mM MES pH 6.3, and 100 mM Na/K phosphate pH 6.2 (buffer only control).
2. Injection of 3 microliters of 100 mM MES pH 6.3, 100 mM Na/K phosphate pH 6.2, and 0.32 mM Topotecan.
3. Injection of 3 microliters of 100 mM MES pH 6.3, 100 mM Na/K phosphate pH 6.2, 13% v/v DMSO, and 0.64 mM camptothecin.
4. […]

The target in experiment [2] is T2, topo70-DNA covalent complex (Homo sapiens, UniProt P11387).
T2 construct: human topoisomerase I construct of residues Lys175 to Phe765; made in house; host or cells: baculovirus-insect cell (SF9)
T2 sequence (P11387 175-765): T1 sequence (P11387 175-765)
The experiment in a line: Crystal growth assay (crystal growth dependence on ligand), T80P CBS-cross solutions. The settings on record: 16° C.
Experimental: The chemical components of each crystallization formulation were classified as being either a crystallant, buffer, or salt. The various crystallants were as follows:
CBS-cross crystallization screening formulations were prepared with all possible combinations of crystallants, buffers and salts.
In one set of crystallization experiments, the T80P crystallization screen was used in a Combinatorial Clover Plate developed by Emerald BioStructures, Inc. [Kim et al.], which allows for the rapid set up of multiple crystallizations in a common vapor diffusive environment.
The 24 reservoir chambers of the Combinatorial Clover Plate were filled with 1.0 milliliter of each of the 24 different T80P formulations. Once the T80P formulations had been individually placed into the reservoir chambers, 2 microliters of each individual crystallization screening formulation was placed into each of the four the sitting drop chambers that are connected to the common reservoir by dedicated vapor diffusion channels. This was followed by the addition of 1 microliter of duplex suicide oligonucleotide substrate (0.05 mM duplex, 6 mM NaCl) into the drop chamber.
The duplex was mixed with the crystallization screening solution by repeated pipetting. This was followed by the addition 0.1 microliter of 10 mM Topotecan to the upper two drop chambers of each crystallization clover. […]

Experiment [3] deals with T2, topo70-DNA covalent complex. The experiment in a line: Crystallization trials with VII-2 solutions in the absence or presence of Topotecan. The settings on record: condition VII-2 #3; 1 microliter of 1 mM ligand in water vs water only; 16° C., several days.
Experimental: The four different VII-2 formulations each contained one or more of the chemical components found in the lead crystallization conditions, plus additional components such as 10 mM DTT. The four VII-2 crystallization conditions were as follows:
A Cryschem tray was used to screen each of the four VII-2 crystallization solutions for their ability to promote crystallization of topo70-DNA complexes in the absence or presence of Topotecan, an analogue of camptothecin. The crystallization experiments were set up by first placing 500 microliters of the VII-2 screening solutions in duplicate individual reservoir chambers. Next, 3 microliters of each reservoir solution was placed into the drop chambers. The drop chamber solutions were then mixed by pipetting with 1.5 microliters of 0.05 mM suicide duplex oligonuceotide substrate in 6 mM NaCl. One microliter of 1 mM Topotecan in pure water or 1 microliter of pure water only was added to each of the duplicate drop chambers. Then 2 microliters of topo70 at 3 mg/ml in 10 mM Tris-HCl pH 7.5, 1 mM EDTA, and 1 mM DTT was added to each of the drop chambers. The crystallization tray was sealed with crystal clear sealing tape (marketed by Manco, Inc. Avon, Ohio), and incubated at 16° C.
Setting [4] is: injection of 3 microliters of 0.64 mM ligand in 100 mM MES pH 6.3, 100 mM Na/K phosphate pH 6.2, 13% v/v DMSO.

Take `CC[C@@]1(O)C(=O)OCc2c1cc1n(c2=O)Cc2cc3cc4c(cc3nc2-1)OCO4` [10,11 MDO-camptothecin, 10,11 MDO camptothecin]: the “effect on integrity of Form 7 crystals (crystal cracking)” value (“effect on integrity of Form 7 crystals” for short) in experiment [1] (setting [4]) is reported as “had dissolved leaving only a trace pile of crystal bits”.
For the molecule `O=C(O)CCCn1c2c(c3ccccc3c1=O)C(=O)c1ccccc1-2` [MJ-II-38], in experiment [2] (T80P #10, 0.5 microliter of 1 mM AG260 in 100% DMSO or 0.3 microliter of 1 mM MJ-II-38 in 90% v/v DMSO, several days), the “ligand-dependent crystal growth of ternary complex crystals” value was “plate like crystals grew”.
For the molecule `CC[C@@]1(O)C(=O)OCc2c1cc1n(c2=O)Cc2cc3c(CN(C)C)c(O)ccc3nc2-1` [Topotecan], the “effect on integrity of Form 7 crystals” value in experiment [1] (injection of 3 microliters of 0.32 mM ligand in 100 mM MES pH 6.3, 100 mM Na/K phosphate pH 6.2) is “showed visible signs of micro cracks throughout the crystals”. For the same molecule, in experiment [3], the “growth of putative topo70-DNA covalent complex crystals (Form 7) with ligand present vs absent” value is “grow in condition VII-2 #3 only when Topotecan was absent”. Besides, in experiment [2] (T80P #9 and T80P #10, 0.1 microliter of 10 mM ligand, day 28, no crystals when ligand absent), the “ligand-dependent crystal growth (Form 9 crystals)” value is “produced crystals of distinct block morphology when Topotecan was present”.
As to `CC[C@@]1(O)C(=O)OCc2c1cc1n(c2=O)Cc2cc3ccccc3nc2-1` [camptothecin], the “effect on integrity of Form 7 crystals” value in experiment [1] (setting [4]) is listed as “showed visible signs of micro cracks throughout the crystals”.
